The values below come from patent US12202821B2, “Herbicidal compounds” (SYNGENTA CROP PROTECTION AG, priority 2019, dated 2025).

Common to all, as to format: in vivo
Experiment [1] concerns IPOHE. The experiment can be described thus: Pre-emergence biological efficacy. Conditions: Ipomoea hederacea, 312 h, evaluated after 13 days, read-out: damage to plant (100=total damage to plant; 0=no damage to plant), IPOHE. Here is the method:
(§1) Pre-Emergence Biological Efficacy
(§2) Seeds of weeds and/or crops were sown in standard soil in pots. After cultivation for one day under controlled conditions in a glasshouse (at 24/16° C., day/night; 14 hours light; 65% humidity), the plants were sprayed with an aqueous spray solution derived from the formulation of the technical active ingredient in acetone/water (50:50) solution containing 0.5% Tween 20 (polyoxyethylene sorbitan monolaurate, CAS RN 9005-64-5) to give the desired final dose of test compound.
(§3) The test plants were then grown under controlled conditions in the glasshouse (at 24/16° C., day/night; 14 hours light; 65% humidity) and watered twice daily. After 13 days the test was evaluated (100=total damage to plant; 0=no damage to plant).

In experiment [2] the test system is LOLPE. Kind of experiment: Pre-emergence biological efficacy. Conditions: 312 h, evaluated after 13 days, read-out: damage to plant (100=total damage to plant; 0=no damage to plant), LOLPE. On the procedure:
as §1, §2, §3

In experiment [3] the test system is SETFA. Kind of experiment: Pre-emergence biological efficacy. Conditions: Setaria faberi, 312 h, evaluated after 13 days, read-out: damage to plant (100=total damage to plant; 0=no damage to plant), SETFA. On the procedure:
as §1, §2, §3

In experiment [4] the test system is AMAPA. The experiment can be described thus: Pre-emergence biological efficacy. Conditions: 312 h, evaluated after 13 days, read-out: damage to plant (100=total damage to plant; 0=no damage to plant), AMAPA. Here is the method: as §1, §2, §3
Experiment [5] concerns ECHCG. Kind of experiment: Pre-emergence biological efficacy. Particulars: Echinochloa crus-galli, 312 h, evaluated after 13 days, read-out: damage to plant (100=total damage to plant; 0=no damage to plant), ECHCG. On the procedure: as §1, §2, §3
Experiment [6] has as its system EPHHL. The experiment can be described thus: Pre-emergence biological efficacy. Conditions: 312 h, evaluated after 13 days, read-out: damage to plant (100=total damage to plant; 0=no damage to plant), EPHHL. On the procedure: as §1, §2, §3
Experiment [7] deals with IPOHE. Kind of experiment: Post-emergence biological efficacy. Particulars: Ipomoea hederacea, 312 h, evaluated after 13 days, read-out: damage to plant (100=total damage to plant; 0=no damage to plant), IPOHE. On the procedure:
(§4) Post-Emergence Biological Efficacy
(§5) Seeds of weeds and/or crops were sown in standard soil in pots. After cultivation for 8 days under controlled conditions in a glasshouse (at 24/16° C., day/night; 14 hours light; 65% humidity), the plants were sprayed with an aqueous spray solution derived from the formulation of the technical active ingredient in acetone/water (50:50) solution containing 0.5% Tween 20 (polyoxyethylene sorbitan monolaurate, CAS RN 9005-64-5) to give the desired final dose of test compound.
(§6) The test plants were then grown on under controlled conditions in a glasshouse (at 24/16° C., day/night; 14 hours light; 65% humidity) and watered twice daily. After 13 days the test was evaluated (100=total damage to plant; 0=no damage to plant).

Experiment [8] relates to LOLPE. The experiment can be described thus: Post-emergence biological efficacy. Particulars: evaluated after 13 days; for pest or weed control at 250 g/ha: 312 h, read-out: damage to plant (100=total damage to plant; 0=no damage to plant), LOLPE. Here is the method:
as §4, §5, §6

The subject of experiment [9] is SETFA. The experiment can be described thus: Post-emergence biological efficacy. Conditions: Setaria faberi, 312 h, evaluated after 13 days, read-out: damage to plant (100=total damage to plant; 0=no damage to plant), SETFA. On the procedure:
as §4, §5, §6

The next experiment relates to DIGSA. The experiment can be described thus: Post-emergence biological efficacy. Conditions: Digitaria sanguinalis, 312 h, evaluated after 13 days, read-out: damage to plant (100=total damage to plant; 0=no damage to plant), DIGSA. On the procedure:
as §4, §5, §6

In another experiment the test system is ELEIN. Kind of experiment: Post-emergence biological efficacy. Particulars: 312 h, evaluated after 13 days, read-out: damage to plant (100=total damage to plant; 0=no damage to plant), ELEIN. On the procedure:
as §4, §5, §6

The next experiment concerns CHEAL. Kind of experiment: Post-emergence biological efficacy. Conditions: Chenopodium album, 312 h, evaluated after 13 days, read-out: damage to plant (100=total damage to plant; 0=no damage to plant), CHEAL. Here is the method: as §4, §5, §6
Experiment [10] relates to AMAPA. Kind of experiment: Post-emergence biological efficacy. Particulars: 312 h, evaluated after 13 days, read-out: damage to plant (100=total damage to plant; 0=no damage to plant), AMAPA. On the procedure: as §4, §5, §6
The subject of experiment [11] is ECHCG. Kind of experiment: Post-emergence biological efficacy. Conditions: Echinochloa crus-galli, 312 h, evaluated after 13 days, read-out: damage to plant (100=total damage to plant; 0=no damage to plant), ECHCG. Here is the method: as §4, §5, §6
For experiment [12], the system named is EPHHL. Kind of experiment: Post-emergence biological efficacy. Particulars: 312 h, evaluated after 13 days, read-out: damage to plant (100=total damage to plant; 0=no damage to plant), EPHHL. On the procedure:
as §4, §5, §6

`CCOC(=O)C1(C)CC(c2cc(-n3c(=O)n(C)c(=S)n(C)c3=O)c(F)cc2Cl)=NO1` (single isomer, unassigned) [Compound 47 (enantiomer B)]: the pest or weed control at 250 g/ha stood at 80% with IPOHE [1]; 40% in the experiment on LOLPE [2]; 100% in the experiment on SETFA [3]; 100% in the experiment with AMAPA [4]; 50% with ECHCG [5]; 100% with EPHHL [6]. Moreover, the pest or weed control at 250 g/ha in the experiment on IPOHE [7], in the experiment on SETFA [9], with DIGSA, in the experiment on ELEIN, in the experiment on CHEAL and with AMAPA [10] was 100% in each case. The pest or weed control at 250 g/ha in the experiment on ECHCG [11] and in the experiment on EPHHL [12] was 100% in each case. Further, the “damage to plant (100=total damage to plant; 0=no damage to plant), LOLPE” value in the experiment with LOLPE [8] (250 g/ha) is on record as 100.
In the case of `CCOC(=O)C1(C)CC(c2cc(-n3c(=O)n(C)c(=S)n(C)c3=O)ccc2Cl)=NO1` (stereo not drawn) [Compound 36, Ethyl 3-[2-chloro-5-(3,5-dimethyl-2,6-dioxo-4-thioxo-1,3,5-triazinan-1-yl)phenyl]-5-methyl-4H-isoxazole-5-carboxylate], the pest or weed control at 250 g/ha stood at 40% in the experiment with IPOHE [1]; 10% with LOLPE [2]; 90% in the experiment with SETFA [3]; 70% in the experiment on AMAPA [4]; 90% with ECHCG [5]; 70% in the experiment with EPHHL [6]. Besides, the pest or weed control at 250 g/ha with IPOHE [7] was determined as 70%; in the experiment with LOLPE [8], 50%; in the experiment on SETFA [9] it was 100%; in the experiment with DIGSA, 100%; in the experiment with ELEIN, 50%; in the experiment with CHEAL, 90%. The pest or weed control at 250 g/ha with AMAPA [10] turned out to be 100%; in the experiment on ECHCG [11], 100%; in the experiment with EPHHL [12], 90%.
In the case of `Cn1c(=S)n(C)c(=O)n(-c2cc(C3=NOC(C)(C(=O)O)C3)c(Cl)cc2F)c1=O` (stereo not drawn) [Compound 45, 3-[2-chloro-5-(3,5-dimethyl-2,6-dioxo-4-thioxo-1,3,5-triazinan-1-yl)-4-fluoro-phenyl]-5-methyl-4H-isoxazole-5-carboxylic acid], the pest or weed control at 250 g/ha in the experiment on IPOHE [1], in the experiment with LOLPE [2], with SETFA [3], in the experiment with AMAPA [4], in the experiment with ECHCG [5] and with EPHHL [6] was 100% each time. Further, the pest or weed control at 250 g/ha in the experiment on IPOHE [7], with LOLPE [8], in the experiment with SETFA [9], with DIGSA, with ELEIN and with CHEAL was 100% throughout. For the same molecule, the pest or weed control at 250 g/ha in the experiment on AMAPA [10], in the experiment on ECHCG [11] and in the experiment on EPHHL [12] was 100% in each case.
Consider `CCOC(=O)C1(C)CC(c2cc(-n3c(=O)n(C)c(=S)n(C)c3=O)c(F)cc2Cl)=NO1` (stereo not drawn) [Compound 47, ethyl 3-[2-chloro-5-(3,5-dimethyl-2,6-dioxo-4-thioxo-1,3,5-triazinan-1-yl)-4-fluoro-phenyl]-5-methyl-4H-isoxazole-5-carboxylate], for which the pest or weed control at 250 g/ha with IPOHE [1] came to 100%; in the experiment on LOLPE [2], 70%; in the experiment on SETFA [3], 100%; in the experiment with AMAPA [4] it was 100%; with ECHCG [5], 100%; in the experiment with EPHHL [6] it was 100%. For the same molecule, the pest or weed control at 250 g/ha with IPOHE [7], with LOLPE [8], with SETFA [9], with DIGSA, with ELEIN and with CHEAL was 100% each time. In addition, the pest or weed control at 250 g/ha in the experiment on AMAPA [10], in the experiment with ECHCG [11] and with EPHHL [12] was 100% in each case.
As for `Cn1c(=S)n(C)c(=O)n(-c2cc(C3=NOC(C)(CO)C3)c(Cl)cc2F)c1=O` (stereo not drawn) [Compound 49, 3-[4-chloro-2-fluoro-5-[5-(hydroxymethyl)-5-methyl-4H-isoxazol-3-yl]phenyl]-1,5-dimethyl-6-thioxo-1,3,5-triazinane-2,4-dione], the pest or weed control at 250 g/ha is 90% in the experiment with IPOHE [1]; 90% with LOLPE [2]; 100% in the experiment on SETFA [3]; 100% with AMAPA [4]; 90% in the experiment on ECHCG [5]; 100% in the experiment on EPHHL [6]. Further, the pest or weed control at 250 g/ha in the experiment with IPOHE [7] came to 100%; in the experiment with LOLPE [8], 60%; in the experiment with SETFA [9], 100%; in the experiment with DIGSA it was 90%; with ELEIN it was 90%; with CHEAL, 100%. The figures for the pest or weed control at 250 g/ha in the experiment on AMAPA [10], in the experiment with ECHCG [11] and in the experiment on EPHHL [12] were 100%, 70% and 100%, respectively.
Consider `CC(=O)OCC1(C)CC(c2cc(-n3c(=O)n(C)c(=S)n(C)c3=O)c(F)cc2Cl)=NO1` (stereo not drawn) [Compound 51, [3-[2-Chloro-5-(3,5-dimethyl-2,6-dioxo-4-thioxo-1,3,5-triazinan-1-yl)-4-fluoro-phenyl]-5-methyl-4H-isoxazol-5-yl]methyl acetate], for which the pest or weed control at 250 g/ha with IPOHE [1] was determined as 80%; in the experiment on LOLPE [2] it was 90%; with SETFA [3], 100%; in the experiment with AMAPA [4] it was 100%; in the experiment with ECHCG [5], 90%; in the experiment with EPHHL [6], 100%. The pest or weed control at 250 g/ha with IPOHE [7] came to 90%; with LOLPE [8], 50%; in the experiment with SETFA [9], 100%; with DIGSA, 100%; with ELEIN, 80%; with CHEAL, 100%. Further, the pest or weed control at 250 g/ha in the experiment on AMAPA [10] was determined as 100%; in the experiment on ECHCG [11] it was 30%; in the experiment with EPHHL [12] it was 100%.
As for `Cn1c(=S)n(C)c(=O)n(-c2cc(C3=NOC(C)(C(=O)O)C3)c(Cl)cc2Cl)c1=O` (stereo not drawn) [Compound 56, 3-[2,4-dichloro-5-(3,5-dimethyl-2,6-dioxo-4-thioxo-1,3,5-triazinan-1-yl)-phenyl]-5-methyl-4H-isoxazole-5-carboxylic acid], the pest or weed control at 250 g/ha worked out at 30% in the experiment on IPOHE [1]; 10% in the experiment with LOLPE [2]; 10% with SETFA [3]; 90% in the experiment on AMAPA [4]; 0% with ECHCG [5]; 10% in the experiment on EPHHL [6]. The pest or weed control at 250 g/ha in the experiment on IPOHE [7] is 90%; with LOLPE [8], 30%; in the experiment with SETFA [9], 90%; with DIGSA it was 80%; in the experiment on ELEIN, 80%; in the experiment with CHEAL it was 90%. Also, the pest or weed control at 250 g/ha with AMAPA [10] came out at 100%; in the experiment on ECHCG [11], 90%; with EPHHL [12], 80%.
